Measurements as given in US20150191445A1, “ACYL-HYDRAZONE AND OXADIAZOLE COMPOUNDS, PHARMACEUTICAL COMPOSITIONS CONTAINING THE SAME AND USES THEREOF” (Universidade Federal de Santa Catarina, priority 2011, published 2015).

Legend:
Type in all cases: cell-based, human
[1] = test system: Bone marrow cells from healthy donors; test: Colony formation assay of hematopoietic cells; conditions: for Colony formation BFU-E / Colony formation CFU-E / Colony formation CFU-G / Colony formation CFU-GEMM / Colony formation CFU-GM / Colony formation CFU-M: two weeks of culture
Experimental: Cytotoxicity of compound 07 was also evaluated with a colony formation assay of hematopoietic cells. A “HSC-CFU complete with Epo” kit from Miltenyi (Cat #130-091-280) was used following the manufacturer's recommendations. Bone marrow cells from healthy donors were cultured in semi-solid methylcellulose medium supplemented with bovine fetal serum, bovine serum albumin, different growth factors (GM-CSF, G-CSF, SCF, IL-3, IL-6, Epo) and compound 07, whose action on hematopoiesis was evaluated. After two weeks of culture at 37° C. and 5% CO2, an assessment of the number of granulocytes (CFU-G), macrophage (CFU-M), granulocyte/macrophage (CFU-GM), erythroid (BFU-E and CFU-E) and mixed (CFU-GEMM) colonies was carried out.

HL-60 cells = test: DNA microarray gene expression and GSEA analysis; conditions: 125 nM, 6 h
Experimental: The cells were incubated for 12 hours in fresh medium before the experiments. Two million cells from the leukemic cell line HL60, in triplicate, were treated with a 125 nM dose of compound 07 or with dimethylsulfoxide (DMSO) vehicle for 6 h, in DMEM supplemented with 10% fetal bovine serum. At the end of this period, the cells were recovered by brief centrifugation and lysed in a solution of guanidine of the RNAspin Mini RNA Isolation kit (GE).
Total RNA was extracted from cells using the RNAspin Mini RNA Isolation kit (GE) following the manufacturer's instructions. A total of 100 ng of RNA was used to prepare biotinylated complementary RNA probes (Bio-cRNA), by cDNA synthesis followed by amplification by in vitro transcription, using the GeneChip WT cDNA Synthesis and Amplification kit (Affymetrix) according to the recommendations of the manufacturer. […]
the results of the microarray hybridization were read in the Affymetrix Gene Chip Scanner 3000-7G. Data were analyzed in the Bioconductor platform. […] The list of differentially expressed genes were analyzed using the CMap (http://www.broad.mit.edu/cmap/) for identification of possible action mechanisms related to the action of known compounds (Lamb, J., Crawford E. D. The Connectivity Map: Using Gene-Expression Signatures to Connect Small Molecules, Genes and Disease Science 2006, 313, 1929-1935). […]

Jurkat cells = test: Quantification of apoptosis with Annexin V/PI labeling; conditions: 125 nM, 18 h
Experimental: (§1) The cells were incubated for 12 hours in fresh medium before experiments. Two million cells from the Jurkat line were incubated for 12 h, 18 h, 24 h and 30 h in RPMI-640 medium supplemented with 10% Fetal Bovine Serum (FCS) and 0.2% Penicillin/Streptomycin (PS) with a concentration of 125 nM of compound 07 or DMSO (vehicle).
The cells treated or not with compound 07 were rinsed in PBS and labeled with Annexin V Apoptosis Assay kit (Invitrogen). Briefly, cells were resuspended in appropriate buffer containing calcium and incubated for 15 min with Annexin V-FITC and propidium iodide 5 μg/mL. 10,000 events were collected on FACSCalibur flow cytometer, excluding any debris by forward vs standard, side scatter, with quantification of green and red fluorescence.

[2] = test system: cell cycle regulatory proteins in Jurkat cells; test: Western blot of cell cycle regulatory proteins; conditions: 125 nM
Experimental: as §1
The cells treated or not with compound 07 were lysed in buffer containing 50 mM Tris pH 7.7, 150 mM NaCl, 5 mM EDTA, 1% Sigma phosphatase inhibitor cocktail I, 1% Sigma phosphatase inhibitor cocktail II, 1% Sigma protease inhibitor cocktail II, 1% Igepal, 0.1% SDS, 0.5% sodium deoxycholate and 1 mM PMSF. After incubation for 30 min on ice and 3 cycles of freezing and thawing, extracts were centrifuged at 10,000 rpm for 20 min at 4° C. to sediment membrane debris. Of the supernatant, we proceeded with protein quantification by Bradford reagent (Biorad). The samples were boiled for 5 min with prior addition of β-mercaptoethanol and 100 μg of protein were subjected to acrylamide:bisacrylamide gel electrophoresis (39:1) 10% with SDS and electrotransferred to 0.45 μm nitrocellulose membrane (Schleicher & Schuell). […]

COc1cc(C(=O)NN=Cc2cccc3ccccc23)cc(OC)c1OC [Compound 07]
Colony formation BFU-E ([1]; 2 nM): 39% | Colony formation CFU-E ([1]; 2 nM): 23% | Colony formation CFU-G ([1]; 2 nM): 11% | Colony formation CFU-GEMM ([1]; 2 nM): 1% | Colony formation CFU-GM ([1]; 2 nM): 52% | Colony formation CFU-M ([1]; 2 nM): 17% | effect on erythrocyte formation ([1]; 20 nM): inhibitory activity on erythrocyte formation comparable to a PI3K inhibitor | effect on granulocytes and macrophages ([1]; 20 nM): inhibitory activity against granulocytes and macrophages, although low in intensity when compared to a F13K inhibitor | Colony formation BFU-E ([1]; 20 nM): 26% | Colony formation CFU-E ([1]; 20 nM): 11% | Colony formation CFU-G ([1]; 20 nM): 14% | Colony formation CFU-GEMM ([1]; 20 nM): 2% | Colony formation CFU-GM ([1]; 20 nM): 27% | Colony formation CFU-M ([1]; 20 nM): 25% | effect on hematopoiesis ([1]; 200 nM): completely inhibited hematopoiesis | Colony formation BFU-E ([1]; 200 nM): 0% | Colony formation CFU-E ([1]; 200 nM): 0% | Colony formation CFU-G ([1]; 200 nM): 0% | Colony formation CFU-GEMM ([1]; 200 nM): 0% | Colony formation CFU-GM ([1]; 200 nM): 0% | Colony formation CFU-M ([1]; 200 nM): 0% | expression of tubulin and tubulin-specific chaperone gene set (GSEA) (HL-60 cells): drastic reduction of the expression of a set of genes of tubulin and tubulin-specific chaperones | induction of apoptosis (Jurkat cells): strong inducer of apoptosis | expression of CDKs [2]: repression of the expression of CDK4 and to a lesser extent also of CDK6, shorter isoform of CDK2 and larger isoform of CDK9 | phosphorylation of Chk2 ([2]; after 12 hours of treatment): possible to detect the phosphorylation of Chk2 in Thr68
